{"source": "paper PMC4256047", "about": "“Structural and Functional Profiling of Environmental Ligands for Estrogen Receptors” (Environmental Health Perspectives, 2014)", "molecules": {"B1": {"name": "fluorescein-RHKILHRLLQEGS peptide corresponding to the NR box 2-binding motif of SRC-1 (peptide)", "peptide": "{fluorescein″}-RHKILHRLLQEGS", "notes": "also called fluorescein-labeled SRC-1 NR2 peptide; SRC-1 NR2 peptide; source: synthetic peptide, bought: EZbiolab"}}, "key": {"[1]": {"molecular_target": "wild-type ERβ LBD (Homo sapiens, UniProt Q92731)", "sequence (Q92731 261-502)": "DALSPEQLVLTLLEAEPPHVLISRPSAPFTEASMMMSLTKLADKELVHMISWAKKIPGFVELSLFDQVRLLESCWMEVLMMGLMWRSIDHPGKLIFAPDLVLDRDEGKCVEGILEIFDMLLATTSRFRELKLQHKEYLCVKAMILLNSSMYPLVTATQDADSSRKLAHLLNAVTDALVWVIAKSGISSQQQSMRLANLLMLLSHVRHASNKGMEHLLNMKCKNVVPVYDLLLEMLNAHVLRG", "assay": "fluorescence anisotropy, SRC-1 NR2 peptide recruitment by ERβ LBD", "conditions": "class from Kd of SRC-1 peptide for ERβ LBD"}, "[2]": {"molecular_target": "T1, human ERα (Homo sapiens, UniProt P03372)", "T1 sequence (P03372 1-595)": "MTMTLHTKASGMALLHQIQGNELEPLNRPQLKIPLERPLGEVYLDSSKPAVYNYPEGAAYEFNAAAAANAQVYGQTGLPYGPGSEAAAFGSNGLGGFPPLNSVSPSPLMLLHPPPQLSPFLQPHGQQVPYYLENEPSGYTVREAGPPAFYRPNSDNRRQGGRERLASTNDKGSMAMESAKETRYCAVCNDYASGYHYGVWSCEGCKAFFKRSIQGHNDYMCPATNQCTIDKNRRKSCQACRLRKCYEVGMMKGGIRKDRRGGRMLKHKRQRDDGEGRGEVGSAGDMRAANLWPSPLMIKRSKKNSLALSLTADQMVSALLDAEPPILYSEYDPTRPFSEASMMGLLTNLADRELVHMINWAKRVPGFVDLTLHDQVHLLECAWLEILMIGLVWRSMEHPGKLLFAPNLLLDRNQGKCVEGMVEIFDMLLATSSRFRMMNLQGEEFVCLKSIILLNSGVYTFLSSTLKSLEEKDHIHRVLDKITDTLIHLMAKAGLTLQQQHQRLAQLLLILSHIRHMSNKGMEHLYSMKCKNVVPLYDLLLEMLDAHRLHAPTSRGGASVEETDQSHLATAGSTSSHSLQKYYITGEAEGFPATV", "assay": "HGELN-ERα luciferase transactivation assay", "conditions": "for relative activation of the two ER subtypes: HGELN-ERα versus HGELN-ERβ, full-length receptors; for agonistic potential in words, FL-ERα: HGELN-ERα, full-length receptor"}, "[3]": {"molecular_target": "human ERβ (Homo sapiens, UniProt Q92731)", "sequence (Q92731 whole entry)": "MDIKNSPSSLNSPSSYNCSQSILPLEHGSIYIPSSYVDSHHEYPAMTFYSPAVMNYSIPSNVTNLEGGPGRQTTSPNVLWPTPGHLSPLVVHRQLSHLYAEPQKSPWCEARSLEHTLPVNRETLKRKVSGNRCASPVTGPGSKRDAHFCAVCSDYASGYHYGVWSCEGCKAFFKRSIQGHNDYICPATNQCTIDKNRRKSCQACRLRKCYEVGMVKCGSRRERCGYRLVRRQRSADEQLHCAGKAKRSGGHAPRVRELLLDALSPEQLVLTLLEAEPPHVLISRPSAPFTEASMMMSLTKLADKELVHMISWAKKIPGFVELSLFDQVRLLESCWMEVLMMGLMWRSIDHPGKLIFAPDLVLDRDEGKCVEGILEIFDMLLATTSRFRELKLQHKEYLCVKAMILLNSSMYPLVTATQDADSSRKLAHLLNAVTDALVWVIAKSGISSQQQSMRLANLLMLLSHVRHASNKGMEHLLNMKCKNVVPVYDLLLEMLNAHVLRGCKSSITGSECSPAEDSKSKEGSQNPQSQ", "assay": "HGELN-ERβ luciferase transactivation assay", "conditions": "full-length receptor"}, "[4]": {"system": "ΔAB-ERα", "assay": "HGELN-ΔAB-ERα luciferase transactivation assay"}, "[5]": {"system": "ΔAB-ERβ", "assay": "HGELN-ΔAB-ERβ luciferase transactivation assay"}, "[6]": {"molecular_target": "T2, wild-type ERα LBD (Homo sapiens, UniProt P03372)", "T2 sequence (P03372 302-552)": "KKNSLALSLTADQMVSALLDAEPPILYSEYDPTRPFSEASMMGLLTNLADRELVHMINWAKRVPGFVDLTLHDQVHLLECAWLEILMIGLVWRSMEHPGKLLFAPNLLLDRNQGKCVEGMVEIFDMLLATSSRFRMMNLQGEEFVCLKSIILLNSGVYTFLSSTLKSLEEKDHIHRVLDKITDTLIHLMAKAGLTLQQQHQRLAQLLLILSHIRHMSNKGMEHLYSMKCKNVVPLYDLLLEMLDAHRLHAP", "assay": "fluorescence anisotropy, SRC-1 NR2 peptide recruitment by ERα LBD", "conditions": "class from Kd of SRC-1 peptide for ERα LBD"}, "[7]": {"system": "ER", "parameters": "method as in Wilson et al. 2004", "conditions": "ref Wilson et al. 2004; cited from earlier work"}, "[8]": {"molecular_target": "T3, wt-ERα LBD (wild-type estrogen receptor α ligand-binding domain, amino acids 302–552) (human, UniProt P03372 302-552)", "T3 construct": "also called wild-type ERα LBD; apo-ERα", "T3 sequence (looked up)": "T2 sequence (P03372 302-552)", "assay": "fluorescence polarisation; fluorescence anisotropy as a1, with 4-OP at 2 molar equivalents of the highest protein concentration", "conditions": "both partners purified"}, "[9]": {"molecular_target": "T4, wt-ERβ LBD (wild-type estrogen receptor β ligand-binding domain, amino acids 261–502) (human, UniProt Q92731 261-502)", "T4 construct": "also called wild-type ERβ LBD; apo-ERβ", "T4 sequence (Q92731 261-502)": "as the sequence (Q92731 261-502) above", "assay": "fluorescence polarisation; fluorescence anisotropy as a1, with BP-2 at 2 molar equivalents of the highest protein concentration", "conditions": "both partners purified"}, "[10]": {"molecular_target": "T3, wt-ERα LBD (wild-type estrogen receptor …)", "assay": "fluorescence polarisation; fluorescence anisotropy as a1, with α-ZA at 2 molar equivalents of the highest protein concentration", "conditions": "both partners purified"}, "[11]": {"molecular_target": "T4, wt-ERβ LBD (wild-type estrogen receptor …)", "assay": "fluorescence polarisation; fluorescence anisotropy as a1, with α-ZA at 2 molar equivalents of the highest protein concentration", "conditions": "both partners purified"}}, "note": "Primed or numbered codes have the meaning given here. Where no end group is shown, it is not given here. fluorescein″ = fluorescein label on the peptide (N-terminal, fluorescein-labeled peptide)", "data": [{"molecule": "CC(C)(C)CC(C)(C)c1ccc(O)cc1", "note": "[4-OP, 4-tert-octylphenol]", "values": [{"measurement": "ligand class by SRC-1 peptide recruitment, ERβ", "setting": "[1]", "value": "partial agonists (partial agonists (1 μM ≤ Kd ≤ values for apo-ERα or -ERβ))"}]}, {"molecule": "O=C(c1ccc(O)cc1O)c1ccc(O)cc1O", "note": "[BP-2, benzophenone-2]", "values": [{"measurement": "relative activation of the two ER subtypes", "setting": "[2]", "value": "activated the two ER subtypes equally"}, {"measurement": "agonistic potential in words, FL-ERα", "setting": "[2]", "value": "full agonist"}, {"measurement": "agonistic potential in words, FL-ERβ", "setting": "[3]", "value": "full agonist"}, {"measurement": "agonistic potential in words, ΔAB-ERα", "setting": "[4]; HGELN-ΔAB-ERα", "value": "full agonist"}, {"measurement": "AF-1 dependence of activity", "setting": "[4]; full-length versus ΔAB (AF-1 deleted) ERs", "value": "fully AF-1–independent activity"}, {"measurement": "agonistic potential in words, ΔAB-ERβ", "setting": "[5]", "value": "full agonist"}, {"measurement": "ligand class by SRC-1 peptide recruitment, ERα", "setting": "[6]", "value": "strong agonists (strong agonists (Kd ≤ 1 μM))"}, {"measurement": "ligand class by SRC-1 peptide recruitment, ERβ", "setting": "[1]", "value": "strong agonists (strong agonists (Kd ≤ 1 μM))"}]}, {"molecule": "CC(C)(c1ccc(O)cc1)c1ccc(O)cc1", "note": "[BPA, bisphenol A]", "values": [{"measurement": "ligand class by SRC-1 peptide recruitment, ERα", "setting": "[6]", "value": "partial agonists (partial agonists (1 μM ≤ Kd ≤ values for apo-ERα or -ERβ))"}, {"measurement": "ligand class by SRC-1 peptide recruitment, ERβ", "setting": "[1]", "value": "partial agonists (partial agonists (1 μM ≤ Kd ≤ values for apo-ERα or -ERβ))"}]}, {"molecule": "Oc1ccc(C(=C(Cl)Cl)c2ccc(O)cc2)cc1", "note": "[BPC, bisphenol C]", "values": [{"measurement": "relative activation of the two ER subtypes", "setting": "[2]", "value": "activated ERα more efficiently than ERβ"}]}, {"molecule": "CCCCOC(=O)c1ccc(O)cc1", "note": "[Butylparaben, butylparaben]", "values": [{"measurement": "ligand class by SRC-1 peptide recruitment, ERβ", "setting": "[1]", "value": "partial agonists (partial agonists (1 μM ≤ Kd ≤ values for apo-ERα or -ERβ))"}]}, {"molecule": "ClC(Cl)=C(c1ccc(Cl)cc1)c1ccc(Cl)cc1", "note": "[DDE, dichlorodiphenyldichloroethylene]", "values": [{"measurement": "ligand class by SRC-1 peptide recruitment, ERα", "setting": "[6]", "value": "partial agonists (partial agonists (1 μM ≤ Kd ≤ values for apo-ERα or -ERβ))"}]}, {"molecule": "Oc1ccc(C(c2ccc(O)cc2)C(Cl)(Cl)Cl)cc1", "note": "[HPTE, 2,2-bis(p-hydroxyphenyl)-1,1,1-trichloroethane]", "values": [{"measurement": "ER activity reported in other studies", "setting": "[7]", "value": "agonistic properties"}]}, {"molecule": "CC(C)(c1cc(Cl)c(O)c(Cl)c1)c1cc(Cl)c(O)c(Cl)c1", "note": "[TCBPA, tetrachlorobisphenol A]", "values": [{"measurement": "agonistic potential in words, FL-ERβ", "setting": "[3]", "value": "ERβ antagonists"}, {"measurement": "agonistic potential in words, ΔAB-ERβ", "setting": "[5]", "value": "ERβ antagonists"}]}, {"molecule": "C[C@H]1CCC[C@H](O)CCCCCc2cc(O)cc(O)c2C(=O)O1", "note": "[α-ZA, α-zearalanol]", "values": [{"measurement": "agonistic potential in words, FL-ERα", "setting": "[2]", "value": "efficiently activated"}, {"measurement": "ligand class by SRC-1 peptide recruitment, ERα", "setting": "[6]", "value": "strong agonists (strong agonists (Kd ≤ 1 μM))"}]}, {"molecule": "B1", "values": [{"measurement": "Kd", "setting": "[8]", "value": "≥ 1", "unit": "µM"}, {"measurement": "Kd", "setting": "[9]", "value": "≤ 1", "unit": "µM"}, {"measurement": "Kd", "setting": "[10]", "value": "≤ 1", "unit": "µM"}, {"measurement": "Kd", "setting": "[11]", "value": "≥ 1", "unit": "µM"}]}]}
